Source: paper PMC8975978, “Bioassay-guided isolation of cytotoxic constituents from the flowers of Aquilaria sinensis” (Natural Products and Bioprospecting, 2022)
In brackets after ≈: the same amount, converted by molar mass. Where two headings read alike, the source gives them in different places.

Assays:
[1] = system: SK-MEL cells; design: method as in PMID 28754541; conditions: cited from earlier work
[2] = system: human normal bronchial epithelial BEAS-2B cells; experiment: MTS cytotoxicity assay, normal BEAS-2B; type: cell-based; conditions: Homo sapiens, read-out: IC50
Experimental: (§1) It had better inhibition against lung cancer cell lines than against other cancer cell lines (Table 1). Thus, the next bioactivity-guided separations were conducted according to the cytotoxicities of the fractions against lung cancer cell lines (A-549, NCI-H520, and SPC-A-1), as well as normal BEAS-2B cells and paclitaxel-resistant lung cancer A549/Taxol cells.
(§2) The cytotoxicity activities were evaluated by MTS assay as previously described.

[3] = system: human lung adenocarcinoma SPC-A-1 cells; experiment: MTS cytotoxicity assay, SPC-A-1; type: cell-based; conditions: read-out: IC50
Experimental: as §1, §2

[4] = system: human lung adenocarcinoma A549 cells; experiment: MTS cytotoxicity assay, A549; type: cell-based; conditions: read-out: IC50
Experimental: as §1, §2

[5] = system: paclitaxel-resistant A549 (A549/Taxol) cells; experiment: MTS cytotoxicity assay, A549/Taxol; type: cell-based, human; conditions: read-out: IC50
Experimental: as §1, §2

[6] = system: human lung squamous cell carcinoma NCI-H520 cells; experiment: MTS cytotoxicity assay, NCI-H520; type: cell-based; conditions: read-out: IC50
Experimental: as §1, §2

[7] = system: SPC-A-1, NCI-H520, A549 and A549/Taxol cell lines; experiment: MTS cytotoxicity assay, four tested lung cancer cell lines together; type: cell-based, human; conditions: Homo sapiens
Experimental: Thus, the next bioactivity-guided separations were conducted according to the cytotoxicities of the fractions against lung cancer cell lines (A-549, NCI-H520, and SPC-A-1), as well as normal BEAS-2B cells and paclitaxel-resistant lung cancer A549/Taxol cells.
Isolates 1–6 were evaluated for their cytotoxicities against SPC-A-1, NCI-H520, A549, A549/Taxol, and BEAS-2B cell lines (Table 5).
as §2

[8] = system: human hepatoma SMMC-7721 cells; experiment: MTS cytotoxicity assay, SMMC-7721; type: cell-based; conditions: Homo sapiens; Table 1, SMMC-7721; read-out: IC50
[9] = system: human leukemia HL-60 cells; experiment: MTS cytotoxicity assay, HL-60; type: cell-based; conditions: Homo sapiens; Table 1, HL-60; read-out: IC50
Experimental: as §1, §2

[10] = system: human colon cancer Caco2 cells; experiment: MTS cytotoxicity assay, Caco2; type: cell-based; conditions: Caco-2, Table 1, Caco2
[11] = system: human neuroblastoma SH-SY5Y cells; experiment: MTS cytotoxicity assay, SH-SY5Y; type: cell-based; conditions: Homo sapiens; Table 1, SH-SY5Y; read-out: IC50
Experimental: as §1, §2

[12] = system: human ovarian carcinoma SK-OV-3 cells; experiment: MTS cytotoxicity assay, SK-OV-3; type: cell-based; conditions: Homo sapiens; Table 1, SK-OV-3; read-out: IC50
Experimental: as §1, §2

[13] = system: human breast cancer MDA-MB-231 cells; experiment: MTS cytotoxicity assay, MDA-MB-231; type: cell-based; conditions: Homo sapiens; Table 1, MDA-MB-231; read-out: IC50
Experimental: as §1, §2

[14] = system: human small cell lung cancer NCI-H446 cells; experiment: MTS cytotoxicity assay, NCI-H446; type: cell-based; conditions: Homo sapiens; Table 1, NCI-H446; read-out: IC50
Experimental: as §1, §2

[15] = system: human colon cancer SW-480 cells; experiment: MTS cytotoxicity assay, SW480; type: cell-based; conditions: Homo sapiens; Table 1, SW480; read-out: IC50
Experimental: as §1, §2

[16] = system: human prostate cancer PC-3 cells; experiment: MTS cytotoxicity assay, PC-3; type: cell-based; conditions: Homo sapiens; Table 1, PC-3; read-out: IC50
Experimental: as §1, §2

[17] = system: human T-cell leukemia MT4 cells; experiment: MTS cytotoxicity assay, MT4; type: cell-based; conditions: Homo sapiens; Table 1, MT4; read-out: IC50
Experimental: as §1, §2

[18] = system: human large cell lung carcinoma NCI-H460 cells; experiment: MTS cytotoxicity assay, NCI-H460; type: cell-based; conditions: Homo sapiens; Table 1, NCI-H460; read-out: IC50
Experimental: as §1, §2

[19] = system: human breast cancer MCF-7 cells; experiment: MTS cytotoxicity assay, MCF-7; type: cell-based; conditions: Homo sapiens, MCF7; Table 1, MCF-7; read-out: IC50
Experimental: as §1, §2

[20] = system: human cervical cancer HeLa cells; experiment: MTS cytotoxicity assay, HeLa; type: cell-based; conditions: Homo sapiens; Table 1, HeLa; read-out: IC50
Experimental: as §1, §2

[21] = BEAS-2B, Table 5, BEAS-2B normal cells
[22] = Homo sapiens, SPCA1, Table 5, SPC-A-1
[23] = Homo sapiens, A549/Taxol, Table 5, A549/Taxol
[24] = Homo sapiens, Table 5, NCI-H520

Q: Which IC50 [1] does the source give for aquilaside B here?
A: The IC50 was 17000 nM.

Q: Which IC50 [1] does the source give for aquilaside C here?
A: The IC50 was 12000 nM.

Q: With `COc1cc(O)c2c(c1)O[C@H](c1ccc(O)cc1)CC2=O` [Compound 5, (−)-(2S)-5,4ʹ-dihydroxy-7-methoxyflavanone] as the compound, how does the IC50 [2, 21] read?
A: The IC50 was greater than 40000 nM.

Q: What about the IC50 [3, 22] of the same compound?
A: The IC50 was greater than 40000 nM.

Q: What about the IC50 ([4]; Homo sapiens, Table 5, A549) of the same compound?
A: Its IC50 is greater than 40000 nM.

Q: And the IC50 [5, 23]?
A: Its IC50 is greater than 40000 nM.

Q: And the IC50 [6, 24]?
A: The IC50 was greater than 40000 nM.

Q: Which IC50 ([2]; Table 5, BEAS-2B normal cells) does the source give for `CC(=O)OC(C)(C)/C=C/C(=O)[C@](C)(O)[C@H]1[C@H](O)C[C@@]2(C)[C@@H]3CC=C4[C@@H](C=C(O)C(=O)C4(C)C)[C@]3(C)C(=O)C[C@]12C` [Compound 3, cucurbitacin E] here?
A: The IC50 was 3460 ± 130 nM.

Q: What about the IC50 ([3]; Table 5, SPC-A-1, listed as Cucurbitacin E) of the same compound?
A: Its IC50 is no more than 20 nM.

Q: What about the IC50 ([3]; Table 5, SPC-A-1) of the same compound?
A: The IC50 was 5 nM.

Q: What about the IC50 [7] of the same compound?
A: Its IC50 is no more than 30 nM.

Q: And the IC50 ([4]; Homo sapiens, A549, Table 5, A549)?
A: The IC50 was no more than 20 nM.

Q: What about the IC50 ([4]; Table 5, A549) of the same compound?
A: Its IC50 is 20 nM.

Q: What about the IC50 ([5]; Table 5, A549/Taxol, listed as Cucurbitacin E) of the same compound?
A: The IC50 was no more than 20 nM.

Q: And the IC50 ([5]; Table 5, A549/Taxol)?
A: The IC50 was 2 nM.

Q: And the IC50 ([6]; Table 5, NCI-H520, listed as Cucurbitacin E)?
A: Its IC50 is no more than 20 nM.

Q: And the IC50 ([6]; Table 5, NCI-H520)?
A: The IC50 was 1 nM.

Q: Which IC50 [8] does the source give for `CC(=O)O[C@H]1C(=O)[C@@]2(C)[C@H]([C@H](OC(=O)c3ccccc3)[C@]3(O)C[C@H](OC(=O)[C@H](O)[C@@H](NC(=O)c4ccccc4)c4ccccc4)C(C)=C1C3(C)C)[C@]1(OC(C)=O)CO[C@@H]1C[C@@H]2O` [Paclitaxel] here?
A: Its IC50 is 0.15 ± 0.02 µg/mL (≈ 176 nM).

Q: And the IC50 ([2]; BEAS-2B, Table 1, BEAS-2B normal cells)?
A: Its IC50 is 3.66 ± 0.3 µg/mL.

Q: And the IC50 ([2]; BEAS-2B, Table 2, BEAS-2B normal cells)?
A: The IC50 was 1.85 ± 0.19 µg/mL.

Q: What about the IC50 ([2]; BEAS-2B, Table 3, BEAS-2B normal cells) of the same compound?
A: Its IC50 is 2.04 ± 0.11 µg/mL.

Q: What about the IC50 ([2]; BEAS-2B, Table 4, BEAS-2B normal cells) of the same compound?
A: Its IC50 is 1.94 ± 0.11 µg/mL.

Q: And the IC50 [2, 21]?
A: Its IC50 is greater than 5000 nM.

Q: What about the IC50 ([3]; Homo sapiens, SPCA1, Table 1, SPC-A-1) of the same compound?
A: Its IC50 is less than 0.007 µg/mL.

Q: What about the IC50 [3, 22] of the same compound?
A: The IC50 was less than 8 nM.

Q: What about the IC50 [9] of the same compound?
A: Its IC50 is less than 0.007 µg/mL.

Q: And the IC50 [10]?
A: The IC50 was 0.02 ± 0.02 µg/mL (≈ 23.4 nM).

Q: And the IC50 [11]?
A: The IC50 was 0.008 ± 0.001 µg/mL (≈ 9.37 nM).

Q: And the IC50 ([4]; Homo sapiens, Table 1, A549)?
A: The IC50 was less than 0.007 µg/mL.

Q: What about the IC50 ([4]; Homo sapiens, Table 5, A549) of the same compound?
A: Its IC50 is less than 8 nM.

Q: What about the IC50 [12] of the same compound?
A: The IC50 was less than 0.007 µg/mL.

Q: What about the IC50 ([5]; Homo sapiens, A549/Taxol, Table 2, A549/Taxol) of the same compound?
A: The IC50 was 0.54 ± 0.09 µg/mL.

Q: What about the IC50 ([5]; Homo sapiens, A549/Taxol, Table 3, A549/Taxol) of the same compound?
A: The IC50 was 1.45 ± 0.12 µg/mL.

Q: And the IC50 ([5]; Homo sapiens, A549/Taxol, Table 4, A549/Taxol)?
A: Its IC50 is 0.96 ± 0.05 µg/mL.

Q: And the IC50 [5, 23]?
A: The IC50 was 1800 ± 130 nM.

Q: What about the IC50 [13] of the same compound?
A: The IC50 was less than 0.007 µg/mL.

Q: What about the IC50 [14] of the same compound?
A: Its IC50 is less than 0.007 µg/mL.

Q: And the IC50 [15]?
A: Its IC50 is less than 0.007 µg/mL.

Q: And the IC50 ([6]; Homo sapiens, Table 1, NCI-H520)?
A: The IC50 was less than 0.007 µg/mL.

Q: What about the IC50 [6, 24] of the same compound?
A: The IC50 was less than 8 nM.

Q: And the IC50 [16]?
A: The IC50 was less than 0.007 µg/mL.

Q: And the IC50 [17]?
A: The IC50 was less than 0.008 µg/mL.

Q: And the IC50 [18]?
A: Its IC50 is less than 0.007 µg/mL.

Q: And the IC50 [19]?
A: The IC50 was less than 0.007 µg/mL.

Q: And the IC50 [20]?
A: The IC50 was less than 0.007 µg/mL.
